In EP1803452A1, “ESTER DERIVATIVE AND PHARMACEUTICAL USE THEREOF” (Japan Tobacco, Inc., priority 2004, dated 2006):

Legend:
[1] = Stability test in buffer (pH 7.4); assay type: physicochemical; settings: phosphate buffer/acetonitrile 7:3, 100 mM potassium phosphate buffer (pH 7.4) and acetonitrile 7:3 (v/v), LC/MS
Procedure, shortened: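 Parent compound measured by LC/MS after 0, 10 or 60 min at 37°C in a 7:3 (v/v) mix of 100 mM potassium phosphate buffer and acetonitrile, with the reaction stopped by acetonitrile plus formic acid (final 0.1%). Percentage remaining is expressed relative to the zero-time amount.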

[2] = Metabolic stability test in plasma; assay type: in vitro ADME, human; settings: LC/MS
Procedure, shortened: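 Remaining rate (%) versus zero time was derived from LC/MS measurement of parent compound after centrifugation. Plasma from human, mouse and hamster received DMSO-dissolved compound and was held at 37°C for 0, 10 or 60 minutes before acetonitrile containing formic acid (final 0.1%) stopped the reaction.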

[3] = Metabolic stability test in liver S9; assay type: in vitro ADME; settings: pH 7.4, human liver S9 2 mg protein/mL, LC/MS
Procedure, shortened: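 Compound from DMSO solution was incubated at 37°C with human liver S9 (final 2 mg protein/mL) in 100 mM potassium phosphate pH 7.4 with an NADPH-regenerating system for 0, 10 and 60 minutes. Reactions were stopped with acetonitrile/0.1% formic acid. Unchanged compound was measured by LC/MS as remaining rate (%) relative to zero time.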

[4] = target: T1, Microsomal triglyceride transfer protein (MTP) from human small intestine microsome (Homo sapiens, UniProt P55157); assay: Inhibition test of interliposomal triglyceride (TG) transfer activity by MTP; assay type: biochemical; settings: purified MTP from human small intestine microsome, 14C-triolein donor/acceptor liposomes, 37 °C for 1.5 hours
T1 construct: Human small intestine microsome was dialyzed against 10 mM phosphate buffer; tissue Tissue Transforming Technologies, Inc; host or cells: Human small intestine microsomes, dialysed, centrifuged, and the supernatant purified on DEAE Sepharose (FPLC)
T1 sequence (P55157 19-894): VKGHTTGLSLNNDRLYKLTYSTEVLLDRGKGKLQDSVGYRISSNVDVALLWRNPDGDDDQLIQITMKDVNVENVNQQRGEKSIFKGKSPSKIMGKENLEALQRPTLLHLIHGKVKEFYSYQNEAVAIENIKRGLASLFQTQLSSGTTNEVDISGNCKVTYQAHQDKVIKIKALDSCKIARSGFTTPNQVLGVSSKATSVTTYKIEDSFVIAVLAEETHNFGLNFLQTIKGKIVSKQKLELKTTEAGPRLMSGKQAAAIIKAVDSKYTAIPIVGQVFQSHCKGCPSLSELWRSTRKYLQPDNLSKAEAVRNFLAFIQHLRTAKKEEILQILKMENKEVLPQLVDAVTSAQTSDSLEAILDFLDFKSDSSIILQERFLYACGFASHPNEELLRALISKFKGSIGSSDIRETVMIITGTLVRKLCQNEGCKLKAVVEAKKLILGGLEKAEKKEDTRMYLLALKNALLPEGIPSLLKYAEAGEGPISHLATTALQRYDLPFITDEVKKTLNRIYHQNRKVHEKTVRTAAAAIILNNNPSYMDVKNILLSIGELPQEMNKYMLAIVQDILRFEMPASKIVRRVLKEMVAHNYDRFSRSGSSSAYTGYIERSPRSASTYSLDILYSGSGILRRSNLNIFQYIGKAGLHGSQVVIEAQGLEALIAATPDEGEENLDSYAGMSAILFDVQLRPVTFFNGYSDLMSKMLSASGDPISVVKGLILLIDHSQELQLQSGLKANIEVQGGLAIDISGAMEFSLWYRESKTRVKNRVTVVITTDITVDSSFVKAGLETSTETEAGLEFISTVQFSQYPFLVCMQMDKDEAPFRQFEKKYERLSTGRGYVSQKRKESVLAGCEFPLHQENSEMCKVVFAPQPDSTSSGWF
T1 sequence (P07237 18-508 partner): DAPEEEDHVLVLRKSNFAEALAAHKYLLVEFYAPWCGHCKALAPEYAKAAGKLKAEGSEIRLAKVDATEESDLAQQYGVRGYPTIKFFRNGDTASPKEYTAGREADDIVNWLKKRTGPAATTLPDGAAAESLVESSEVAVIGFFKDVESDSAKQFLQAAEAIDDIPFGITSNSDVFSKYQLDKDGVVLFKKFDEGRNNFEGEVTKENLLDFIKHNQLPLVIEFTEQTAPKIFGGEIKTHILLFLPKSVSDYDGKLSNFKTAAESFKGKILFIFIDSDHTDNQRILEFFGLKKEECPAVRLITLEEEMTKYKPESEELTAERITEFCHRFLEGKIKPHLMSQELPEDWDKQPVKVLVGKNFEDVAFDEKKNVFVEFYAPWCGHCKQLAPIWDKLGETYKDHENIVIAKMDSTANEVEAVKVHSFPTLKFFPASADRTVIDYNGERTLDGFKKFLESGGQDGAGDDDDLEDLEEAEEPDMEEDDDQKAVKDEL
Excerpt: Firstly, in order to prepare the donor, there were volatilized under a stream of nitrogen gas a phosphatidylcholine solution containing phosphatidylcholine labeled with ^3H, a cardiolipin solution, and a triolein solution containing triolein labeled with ^14C (each solution had been already dissolved in an appropriate organic solvent), or in order to prepare the acceptor, there were volatilized under nitrogen flow a phosphatidylcholine solution containing phosphatidylcholine labeled with ^3H and a cardiolipin solution (each solution had been already dissolved in an appropriate organic solvent). An appropriate amount of a reaction buffer (15 mM Tris-HCl buffer containing 1 mM EDTA.Na2, 40 mM NaCl, and 0.5% (w/v) bovine serum albumin, pH 7.4) was added thereto to be emulsified. […] Each of the resulting supernatant was used for donor or acceptor.
Each radioactivity in the acceptor and the donor was measured by liquid scintillation counter, and a mixed solution of the acceptor and the donor was prepared with a reaction buffer so as to be a donor-derived radioactivity of 16,000 dpm/400 µL and a acceptor-derived radioactivity of 4,000 dpm/400 µL. 400 µL of the mixed solution of the donor and the acceptor, 45 µL of the reaction buffer, 50 µL of MTP (20 µg/mL), and 5 µL of a sample dissolved in DMSO (dimethyl sulfoxide) or 5 µL of DMSO was mixed (total amount: 500 µL). The mixture was incubated at 37 °C for 1.5 hours. […] The radioactivity in the acceptor was measured by liquid scintillation counter. The value obtained by subtracting the radioactivity in a blank group from the radioactivity in the acceptor of a DMSO group was determined as MTP-mediated TG transfer activity, and it was compared with the value obtained by subtracting the radioactivity in the blank group from the radioactivity in a sample group. […] Inhibition rate (%) was calculated from values obtained according to the following equation. Inhibition rate(%) = (1 minus ((radioactivity of sample group minus radioactivity of blank group)/(radioactivity of DMSO group minus radioactivity of blank group))) × 100.

Q: For COC(=O)c1ccc(OC(=O)CCCc2ccc(NC(=O)c3ccc(C)nc3-c3ccc(C(F)(F)F)cc3)c(C(=O)N(C)C)c2)c(C(=O)OC)c1 [Compound 1-70, 4-[4-(3-dimethylcarbamoyl-4-{[6-methyl-2-(4-trifluoromethylphenyl)pyridine-3-carbonyl]amino}phenyl)butyryloxy]isophthalic acid dimethyl ester], which remaining at 10 min ([1]; 10 minutes at 37°C, read-out: Buf. remaining rate (%/10min)) is on record?
A: 101%

Q: And the remaining at 1 h ([1]; 60 minutes at 37°C, read-out: Buf. remaining rate (%/60min))?
A: 104%

Q: What about the remaining at 10 min ([2]; unchanged form after 10 minutes at 37°C in human plasma, read-out: Remaining rate in human plasma (%/10min)) of the same compound?
A: 0%

Q: What about the remaining at 1 h ([2]; unchanged form after 60 minutes at 37°C in human plasma, read-out: Remaining rate in human plasma (%/60min)) of the same compound?
A: 0%

Q: And the remaining at 10 min ([3]; unchanged form after 10 minutes at 37°C, read-out: Remaining rate in human liver S9 (%/10min))?
A: 0%

Q: And the remaining at 1 h ([3]; unchanged form after 60 minutes at 37°C, read-out: Remaining rate in human liver S9 (%/60min))?
A: 0%

Q: What about the “Human intestine MTP (IC50(nM))” value [4] of the same compound?
A: + ++
